According to US9475841B2, “Melanoma antigen peptide and uses thereof” (INSERM (INSTITUT NATIONAL DE LA SANTE ET DE LA RECHERCHE …, priority 2012, dated 2016):

Experiments:
[1] = tested on: MELOE-1 specific CD4 T cells; test: MELOE-1 CD4+ T cell responses in PBMC from melanoma patients: restimulation with peptides, CD4/IFN-γ (Th1) and CD4/IL4 (Th2) staining; assay type: cell-based, human; settings: for Th1 responses, % of tested microcultures: 576 tested microcultures from melanoma patients, IFN-γ; for patients in which Th2 responses were detected / patients in which CD4 responses specific for the region were detected: melanoma patients; for patients in which Th2 responses were detected: IL4; for patients in which CD4 responses specific for the region were detected: Table III, Th1 (IFN-γ); for mean % of cytokine producing CD4 T cells, in positive microcultures (IFN-γ): Th1; for Th1 responses (IFN-γ positive microcultures) / Th2 responses (IL4 positive microcultures): positive/tested microcultures; for mean % of cytokine producing CD4 T cells, in positive microcultures (IL4): Th2
Protocol: PBMC from melanoma patients were stimulated with 10 μM of MELOE-1. After 14 days, the presence of CD4 T cells specific for the different regions of MELOE-1 was assessed by restimulating cells with MELOE-12-21, MELOE-111-30 and MELOE-122-46 peptides, followed by CD4/IFN-γ double staining for the detection of Th1 responses, and by CD4/IL4 double staining for Th2 responses. Between brackets is indicated the mean % of cytokine producing CD4 T cells, in positive microcultures.
(§1) PBMC from healthy donors or melanoma patients (2·10^5 cells/well) were cultured for 14 days with 10 μM of MELOE-1 whole antigen (46 amino acids) in RPMI medium supplemented with 8% HS, 50 IU/ml of rIL-2 (Chiron, France) and L-Glutamin, in 96-well multiplates. Microcultures were then restimulated individually with each overlapping peptide (MELOE-12-21, MELOE-111-30, MELOE-118-37, MELOE-12646 or MELOE-122-46 for melanoma patients) in the presence of 10 μg/mL brefeldin A for 5 hours and the percentage of CD4^+ specific T cells was assessed by TNF-α, IFN-γ or IL-4 intracellular staining. A negative control without peptide was included in all experiments.
In order to confirm the immunogenicity of each MELOE-1 regions in melanoma patients, we stimulated melanoma patients PBMC with the MELOE-1 whole protein, and tested the reactivity of stimulated lymphocytes towards the three most immunogenic regions: 2-21, 11-30, and 22-46. For this study, instead of challenging microcultures with the 18-37 peptide, that appeared poorly immunogenic, we extended the C-terminus region from 26-46 to 22-46, in order to also detect responses to our previously described HLA-DR11-restricted epitope (24-37). […] We tested the induction of CD4 specific responses from MELOE-1 stimulated PBMC of […] melanoma patients. We documented CD4 responses specific for the central region of MELOE-1 (11-30) for 7/9 patients, whereas responses specific for MELOE-12-21 and MELOE-122-46 were respectively detected in 4/9 and 5/9 patients (Table III). These responses were mainly Th1 responses (IFN-g production) while less frequent Th2 responses specific for the three regions of MELOE-1 were detected in 3/9 patients for MELOE-12-21, 2/9 patients for MELOE-111-30 and 5/9 patients for MELOE-122-46 (Table III). […] Concerning Th2 responses, much less frequent, the C-term region appeared to induce more frequently the growth of IL-4 producing CD4 T cells than the two other regions (FIG. 2A). […] In summary, stimulation of patient's PBMC with MELOE-1 induced Th1 responses specific for diverse epitopes located all along the protein sequence, and among the different regions, the central region (11-30) and the C-term region (22-46) appeared to be especially immunogenic in term of frequency of responses.

[2] = tested on: MELOE-1 specific CD4+ T cells; test: MELOE-1 CD4+ T cell responses in PBMC from healthy donors: restimulation of microcultures with overlapping peptides, CD4/TNF-α staining; assay type: cell-based, human; settings: for Microcultures containing MELOE-1 specific CD4+ T cells (TNF-α production): positive/tested microcultures; for donors in which CD4 responses against the region were detected: seven healthy donors
Protocol: PBMC from healthy donors were stimulated with 10 μM of MELOE-1. After 14 days, the presence of CD4 T cells specific for the different regions of MELOE-1 was assessed by restimulating cells with MELOE-12-21, MELOE-111-30, MELOE-118-37 and MELOE-126-46 peptides, followed by CD4/TNF-α double staining and flow cytometry analysis. Between brackets is indicated the mean % of TNF-α producing CD4 T cells, in positive microcultures. NA: not available.
as §1
Our purpose was to look for the existence of class II helper epitopes all along MELOE-1 sequence (SEQ ID NO:20), in order to document the immunogenicity of the different regions of this melanoma antigen. We stimulated 2·10^7 PBMC from seven healthy donors with MELOE-1 whole antigen and tested, after a 14-day culture period the presence of CD4 T cells specific for each region of the protein. Microcultures were screened for TNFα production by CD4+ T cells, after restimulation with four MELOE-1 derived overlapping peptides (Table I), in an autopresentation assay. […] On the contrary, the central region 18-37, containing an already described DR11-restricted epitope (24-37) located just at the end of this 20-mer peptide (Rogel et al., 2011), induced specific responses in microcultures deriving from only 2/7 donors (HD9 and HD17, both expressing the DR11 element). In these two donors, we detected 6 and 7% of positive microcultures, containing between 0.6 to 3.7% of TNFα producing CD4 T cells.

[3] = patient Pt ≠ 3 (DPβ1*0201/2001, DQβ1*0303/0501, DRβ1*0101/0701)
[4] = donor HD9 (DPβ1*0902/1501, DQβ1*0301, DRβ1*1104/1201)
[5] = donor HD17 (DPβ1*0401/0301, DQβ1*0301/0603, DRβ1*1101/1301)
[6] = donor HD22 (DPβ1*0401/1101, DQβ1*0202, DRβ1*0701)
[7] = donor HD24 (DPβ1*0401/0101, DQβ1*0501/0602, DRβ1*0101/1501)
[8] = donor HD25 (DPβ1*0401/0402, DQβ1*0201, DRβ1*0301)
[9] = donor HD27 (DQβ1*501/0201, DRβ1*0101/0301)

SCVGYPDEATSREQFLPSEG (SCVGYPDEATSREQFLPSEC) [MELOE-12-21]
Th1 responses, % of tested microcultures [1]: 3.3%
patients in which Th2 responses were detected [1]: 3/9
patients in which CD4 responses specific for the region were detected [1]: 4/9
mean % of cytokine producing CD4 T cells, in positive microcultures (IFN-γ) ([1]; patient Pt ≠ 1): (0.7%)
Th1 responses (IFN-γ positive microcultures) ([1]; patient Pt ≠ 1): 1/48
Th2 responses (IL4 positive microcultures) ([1]; patient Pt ≠ 1): 0/48
mean % of cytokine producing CD4 T cells, in positive microcultures (IFN-γ) ([1]; patient Pt ≠ 2): (0.8% ± 0.2)
Th1 responses (IFN-γ positive microcultures) ([1]; patient Pt ≠ 2): 4/96
Th2 responses (IL4 positive microcultures) ([1]; patient Pt ≠ 2): 0/96
Th1 responses (IFN-γ positive microcultures) [1, 3]: 10/96
mean % of cytokine producing CD4 T cells, in positive microcultures (IFN-γ) ([1]; patient Pt ≠ 3): (1.7% ± 2.9)
Th2 responses (IL4 positive microcultures) ([1]; patient Pt ≠ 3): 0/96
mean % of cytokine producing CD4 T cells, in positive microcultures (IL4) ([1]; patient Pt ≠ 4): (0.7%)
Th1 responses (IFN-γ positive microcultures) ([1]; patient Pt ≠ 4): 0/48
Th2 responses (IL4 positive microcultures) ([1]; patient Pt ≠ 4): 1/48
mean % of cytokine producing CD4 T cells, in positive microcultures (IFN-γ) ([1]; patient Pt ≠ 5): (0.6%)
mean % of cytokine producing CD4 T cells, in positive microcultures (IL4) ([1]; patient Pt ≠ 5): (0.7% ± 0.1)
Th1 responses (IFN-γ positive microcultures) ([1]; patient Pt ≠ 5): 1/48
Th2 responses (IL4 positive microcultures) ([1]; patient Pt ≠ 5): 2/48
Th1 responses (IFN-γ positive microcultures) ([1]; patient Pt ≠ 6): 0/48
Th2 responses (IL4 positive microcultures) ([1]; patient Pt ≠ 6): 0/48
Th1 responses (IFN-γ positive microcultures) ([1]; patient Pt ≠ 7): 0/48
Th2 responses (IL4 positive microcultures) ([1]; patient Pt ≠ 7): 0/48
Th1 responses (IFN-γ positive microcultures) ([1]; patient Pt ≠ 8): 0/48
Th2 responses (IL4 positive microcultures) ([1]; patient Pt ≠ 8): 0/48
mean % of cytokine producing CD4 T cells, in positive microcultures (IL4) ([1]; patient Pt ≠ 9): (0.6%)
Th1 responses (IFN-γ positive microcultures) ([1]; patient Pt ≠ 9): 0/48
Th2 responses (IL4 positive microcultures) ([1]; patient Pt ≠ 9): 1/48
mean % of TNF-α producing CD4 T cells, in positive microcultures ([2]; donor HD9): (1.4% ± 0.6)
Microcultures containing MELOE-1 specific CD4+ T cells (TNF-α production) [2, 4]: 9/96
mean % of TNF-α producing CD4 T cells, in positive microcultures ([2]; donor HD17): (3.2% ± 1.9)
Microcultures containing MELOE-1 specific CD4+ T cells (TNF-α production) [2, 5]: 6/96
mean % of TNF-α producing CD4 T cells, in positive microcultures ([2]; donor HD22): (1%)
Microcultures containing MELOE-1 specific CD4+ T cells (TNF-α production) [2, 6]: 1/96
mean % of TNF-α producing CD4 T cells, in positive microcultures ([2]; donor HD24): (1.3% ± 0.8)
Microcultures containing MELOE-1 specific CD4+ T cells (TNF-α production) [2, 7]: 3/96
mean % of TNF-α producing CD4 T cells, in positive microcultures ([2]; donor HD25): (0.6% ± 0.1)
Microcultures containing MELOE-1 specific CD4+ T cells (TNF-α production) [2, 8]: 3/96
Microcultures containing MELOE-1 specific CD4+ T cells (TNF-α production) [2, 9]: 0/96
mean % of TNF-α producing CD4 T cells, in positive microcultures ([2]; donor HD28): (2.7% ± 1.2)
Microcultures containing MELOE-1 specific CD4+ T cells (TNF-α production) ([2]; donor HD28 (DRβ1*0301)): 30/48
% of positive microcultures ([2]; healthy donor HD28): 62%
donors in which CD4 responses against the region were detected [2]: 6/7

TSREQFLPSEGAACPPWHPS [MELOE-111-30]
Th1 responses, % of tested microcultures [1]: 10.8%
patients in which Th2 responses were detected [1]: 2/9
patients in which CD4 responses specific for the region were detected [1]: 7/9
mean % of cytokine producing CD4 T cells, in positive microcultures (IFN-γ) ([1]; patient Pt ≠ 1): (1.4% ± 0.7)
mean % of cytokine producing CD4 T cells, in positive microcultures (IL4) ([1]; patient Pt ≠ 1): (1%)
Th1 responses (IFN-γ positive microcultures) ([1]; patient Pt ≠ 1): 10/48
Th2 responses (IL4 positive microcultures) ([1]; patient Pt ≠ 1): 1/48
mean % of cytokine producing CD4 T cells, in positive microcultures (IFN-γ) ([1]; patient Pt ≠ 2): (1.6% ± 1.2)
Th1 responses (IFN-γ positive microcultures) ([1]; patient Pt ≠ 2): 16/96
Th2 responses (IL4 positive microcultures) ([1]; patient Pt ≠ 2): 0/96
Th1 responses (IFN-γ positive microcultures) [1, 3]: 5/96
mean % of cytokine producing CD4 T cells, in positive microcultures (IFN-γ) ([1]; patient Pt ≠ 3): (16.2% ± 33.2)
Th2 responses (IL4 positive microcultures) ([1]; patient Pt ≠ 3): 0/96
mean % of cytokine producing CD4 T cells, in positive microcultures (IFN-γ) ([1]; patient Pt ≠ 4): (0.9% ± 0.5)
Th1 responses (IFN-γ positive microcultures) ([1]; patient Pt ≠ 4): 9/48
Th2 responses (IL4 positive microcultures) ([1]; patient Pt ≠ 4): 0/48
mean % of cytokine producing CD4 T cells, in positive microcultures (IFN-γ) ([1]; patient Pt ≠ 5): (1.5% ± 1.1)
Th1 responses (IFN-γ positive microcultures) ([1]; patient Pt ≠ 5): 6/48
Th2 responses (IL4 positive microcultures) ([1]; patient Pt ≠ 5): 0/48
mean % of cytokine producing CD4 T cells, in positive microcultures (IFN-γ) ([1]; patient Pt ≠ 6): (1.5% ± 1.9)
Th1 responses (IFN-γ positive microcultures) ([1]; patient Pt ≠ 6): 5/48
Th2 responses (IL4 positive microcultures) ([1]; patient Pt ≠ 6): 0/48
Th1 responses (IFN-γ positive microcultures) ([1]; patient Pt ≠ 7): 0/48
Th2 responses (IL4 positive microcultures) ([1]; patient Pt ≠ 7): 0/48
mean % of cytokine producing CD4 T cells, in positive microcultures (IFN-γ) ([1]; patient Pt ≠ 8): (2.9% ± 0.04)
Th1 responses (IFN-γ positive microcultures) ([1]; patient Pt ≠ 8): 2/48
Th2 responses (IL4 positive microcultures) ([1]; patient Pt ≠ 8): 0/48
mean % of cytokine producing CD4 T cells, in positive microcultures (IL4) ([1]; patient Pt ≠ 9): (0.6% ± 0.09)
Th1 responses (IFN-γ positive microcultures) ([1]; patient Pt ≠ 9): 0/48
Th2 responses (IL4 positive microcultures) ([1]; patient Pt ≠ 9): 9/48
frequency of positive microcultures compared with the three other regions of MELOE-1 ([2]; all healthy donors, FIG. 1, p<0.0001): significantly higher
mean % of TNF-α producing CD4 T cells, in positive microcultures ([2]; donor HD9): (2.4% ± 1.5)
Microcultures containing MELOE-1 specific CD4+ T cells (TNF-α production) [2, 4]: 13/96
mean % of TNF-α producing CD4 T cells, in positive microcultures ([2]; donor HD17): (8.2% ± 6.5)
Microcultures containing MELOE-1 specific CD4+ T cells (TNF-α production) [2, 5]: 26/96
mean % of TNF-α producing CD4 T cells, in positive microcultures ([2]; donor HD22): (3.9% ± 3.3)
Microcultures containing MELOE-1 specific CD4+ T cells (TNF-α production) [2, 6]: 2/96
mean % of TNF-α producing CD4 T cells, in positive microcultures ([2]; donor HD24): (2% ± 1.4)
Microcultures containing MELOE-1 specific CD4+ T cells (TNF-α production) [2, 7]: 46/96
mean % of TNF-α producing CD4 T cells, in positive microcultures ([2]; donor HD25): (1.2% ± 0.7)
Microcultures containing MELOE-1 specific CD4+ T cells (TNF-α production) [2, 8]: 3/96
mean % of TNF-α producing CD4 T cells, in positive microcultures ([2]; donor HD27): (5% ± 3.4)
Microcultures containing MELOE-1 specific CD4+ T cells (TNF-α production) [2, 9]: 5/96
Microcultures containing MELOE-1 specific CD4+ T cells (TNF-α production) ([2]; donor HD28 (DRβ1*0301)): 14/48
donors in which CD4 responses against the region were detected [2]: each tested donor
